From patent publication US11058700B2, “Macrocyclic lactones and uses thereof as modulators of purinergic receptors” (City of Hope, priority 2015, dated 2021)

Legend:
[1] = test system: MDA-MB-231 breast cancer cells; assay: Viability of breast cancer cells compared to normal fibroblasts; format: cell-based; details: MDA-MB-231 vs normal non-transformed human foreskin fibroblasts (HFFs)
Procedure: FIGS. 1A-1H. Ivermectin kills breast cancer cells through a mixed apoptotic and necrotic mechanism. FIG. 1A: Mouse (4T1.2) and human (MDA-MB-231) TNBC cells manifest similar sensitivity to Ivermectin. Viability of cells treated with various doses of Ivermectin for 24 h. FIG. 1B: Extended exposure time reduces IC50 values to as low as 2 μM. 4T1.2 cells were seeded at 100 cells/well and individual colonies were counted after a week. Cancer cells were exposed to Ivermectin during the initial 24 h or during the entire duration of the assay. FIG. 1C: MDA-MB-231 breast cancer cells manifest higher sensitivity to Ivermectin compared to normal non-transformed human foreskin fibroblasts (HFFs). FIG. 1D: Flow cytometry analysis showing that cell death proceeds through two distinct pathways: a directly necrotic 7AAD-single positive or Annexin V/PS-single positive apoptotic pathway. FIG. 1E: Kinetics of necrotic versus apoptotic killing of 4T1.2 breast cancer cells. FIG. 1F: Ivermectin-induced cell death can be reversed by inhibition of various controlled cell death pathways. […]
Cell viability. […] Following treatment the plates were washed once with PBS and cell viability was measured using the acid phosphatase assay. […] Absorption at 405 nm was measured within 10 min using a multi-well plate reader. Mode of cell death and viability of cells in suspension was evaluated using flow cytometry. […]

[2] = test system: 4T1.2 breast cancer cells; assay: Cytosolic Cl- influx; format: cell-based; details: mouse 4T1.2 cells
Procedure: Cytosolic Cl^− influx. Cancer cells in suspension were treated with various doses of Ivermectin in R10 medium for 1h at 37° C. and 5% CO2. Cells were then washed with PBS and loaded with 10 μM SPQ probe (Life Technologies, M440) in a hypotonic buffer containing 50% PBS and 50% double distilled water. Following brief 15 min incubation at room temperature in the dark cells were washed once with PBS and immediately analyzed by flow cytometry measuring fluorescence in the AF350 channel.

breast cancer cells = assay: Induction of autophagy (GFP-LC3 puncta, Western blot LC3 / p62); format: cell-based, mouse, human
Procedure: FIGS. 6A-6E. Ivermectin induces autophagy. FIG. 6A: Ivermectin induces autophagy in breast cancer cells. MDA-MB-231 GFL-LC3 cells were treated with different doses of Ivermectin for 24 h and formation of green fluorescent puncta was evaluated by confocal fluorescence microscopy. FIG. 6B: Western blot confirming the induction of autophagy in both murine and human breast cancer cells, as evidenced by LC3 lipidation and autophagic degradation of p62(SQSTM1). […] MDA-MB-231 cells (triplicates) were treated with different doses of Ivermectin for up to 24h and surface stained with antibody-specific for the human M6P receptor versus isotype control. Similarly, 4T1.2 and MB231 cells were treated with different doses of Ivermectin for 4-24 h, and were stained with an antibody specific for both human and mouse CRT versus isotype control. Mean fluorescent intensity (MFI) values and ratios versus isotype control were calculated after gating on live/membrane-intact cells. FIG. 6D: Ivermectin (32 μM) induces release of HMGB1 from murine and human TNBC cells (triplicates). […] Asterisk (*) indicates p<0.05 relative to untreated or Ivermectin alone controls, respectively.
Western Blotting. […] Activation and cleavage of caspases was evaluated using antibodies specific for caspase-1 (NOVUS, NBP1-45433) and caspase-3 (Cell Signaling, 9665). […]

## CC[C@H](C)[C@H]1O[C@]2(CC[C@@H]1C)C[C@@H]1C[C@@H](C/C=C(\C)[C@@H](O[C@H]3C[C@H](OC)[C@@H](O[C@H]4C[C@H](OC)[C@@H](O)[C@H](C)O4)[C@H](C)O3)[C@@H](C)/C=C/C=C3\CO[C@@H]4[C@H](O)C(C)=C[C@@H](C(=O)O1)[C@]34O)O2 [Ivermectin]
[1]
  sensitivity of breast cancer cells versus normal cells: higher sensitivity than normal cells
[2]
  cytosolic Cl- influx: Cl^− influx
Breast cancer cells
  induction of autophagy: potent inducer of autophagy
